Measurements from patent US20250270180A1, “MEK INHIBITORS AND THERAPEUTIC USES THEREOF” (Immuneering Corporation, priority 2020, published 2025).
Read-outs that look alike come from different tables or passages of the source.

What was measured:
[1] = Plasma stability, beagle dog; type: in vitro ADME; conditions: 2 μM
CYP450 1A2 = target: T1, CYP450 1A2 (Homo sapiens, UniProt P05177); test: CYP450 panel, 1A2; type: in vitro ADME; conditions: 10 μM; substrate phenacetin
T1 sequence (P05177 1-516): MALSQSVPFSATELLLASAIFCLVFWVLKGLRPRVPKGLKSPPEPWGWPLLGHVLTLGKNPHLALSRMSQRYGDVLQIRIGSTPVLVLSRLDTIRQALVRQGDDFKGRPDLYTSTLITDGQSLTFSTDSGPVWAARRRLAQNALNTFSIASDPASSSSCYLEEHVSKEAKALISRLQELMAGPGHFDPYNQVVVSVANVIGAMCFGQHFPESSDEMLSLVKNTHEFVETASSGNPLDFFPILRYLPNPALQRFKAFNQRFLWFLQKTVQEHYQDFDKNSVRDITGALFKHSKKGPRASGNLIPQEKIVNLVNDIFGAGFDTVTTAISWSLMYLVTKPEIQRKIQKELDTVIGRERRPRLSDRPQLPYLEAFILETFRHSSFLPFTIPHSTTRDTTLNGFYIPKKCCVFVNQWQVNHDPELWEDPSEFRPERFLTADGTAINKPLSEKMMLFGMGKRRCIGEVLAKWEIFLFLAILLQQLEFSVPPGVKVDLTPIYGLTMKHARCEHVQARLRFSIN

CYP450 3A4 = CYP450 3A4 (Homo sapiens, UniProt P08684); test: CYP450 panel, 3A4; conditions: 10 μM; for 3A4*: substrate midazolam; for 3A4^: substrate testosterone
Chain of CYP450 3A4 (P08684 whole entry): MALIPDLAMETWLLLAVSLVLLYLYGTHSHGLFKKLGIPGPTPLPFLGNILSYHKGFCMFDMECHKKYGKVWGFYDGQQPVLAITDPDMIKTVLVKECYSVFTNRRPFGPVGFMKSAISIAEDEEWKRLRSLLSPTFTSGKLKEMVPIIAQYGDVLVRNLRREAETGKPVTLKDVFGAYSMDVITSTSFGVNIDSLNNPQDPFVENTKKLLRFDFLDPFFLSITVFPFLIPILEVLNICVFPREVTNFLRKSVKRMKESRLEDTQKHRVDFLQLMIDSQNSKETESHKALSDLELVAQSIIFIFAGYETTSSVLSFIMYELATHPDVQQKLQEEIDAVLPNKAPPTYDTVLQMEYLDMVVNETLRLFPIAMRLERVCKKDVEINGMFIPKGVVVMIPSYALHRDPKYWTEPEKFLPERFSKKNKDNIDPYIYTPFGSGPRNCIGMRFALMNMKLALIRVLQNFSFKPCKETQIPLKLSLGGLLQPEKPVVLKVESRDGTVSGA

CYP450 2C19 = CYP450 2C19 (Homo sapiens, UniProt P33261); test: CYP450 panel, 2C19; conditions: 10 μM; substrate mephenytoin
Chain of CYP450 2C19 (P33261 whole entry): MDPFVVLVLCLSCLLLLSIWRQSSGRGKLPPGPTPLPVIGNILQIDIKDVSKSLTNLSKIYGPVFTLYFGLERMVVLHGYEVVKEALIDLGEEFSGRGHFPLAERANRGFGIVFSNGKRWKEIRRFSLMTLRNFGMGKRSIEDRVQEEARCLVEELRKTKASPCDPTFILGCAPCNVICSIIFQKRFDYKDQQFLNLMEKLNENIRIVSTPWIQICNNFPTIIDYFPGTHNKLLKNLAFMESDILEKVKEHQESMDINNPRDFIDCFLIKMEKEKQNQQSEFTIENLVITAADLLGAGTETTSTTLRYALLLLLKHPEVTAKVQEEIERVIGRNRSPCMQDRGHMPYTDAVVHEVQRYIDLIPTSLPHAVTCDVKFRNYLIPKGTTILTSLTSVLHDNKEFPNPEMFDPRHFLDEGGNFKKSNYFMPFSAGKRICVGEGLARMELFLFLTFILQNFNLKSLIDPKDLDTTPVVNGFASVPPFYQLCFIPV

[2] = Microsome stability, CD-1 mouse; conditions: microsomes, 2 μM
CYP450 2B6 = target: T2, CYP450 2B6 (Homo sapiens, UniProt P20813); test: CYP450 panel, 2B6; conditions: 10 μM; substrate bupropion
T2 sequence (P20813 1-491): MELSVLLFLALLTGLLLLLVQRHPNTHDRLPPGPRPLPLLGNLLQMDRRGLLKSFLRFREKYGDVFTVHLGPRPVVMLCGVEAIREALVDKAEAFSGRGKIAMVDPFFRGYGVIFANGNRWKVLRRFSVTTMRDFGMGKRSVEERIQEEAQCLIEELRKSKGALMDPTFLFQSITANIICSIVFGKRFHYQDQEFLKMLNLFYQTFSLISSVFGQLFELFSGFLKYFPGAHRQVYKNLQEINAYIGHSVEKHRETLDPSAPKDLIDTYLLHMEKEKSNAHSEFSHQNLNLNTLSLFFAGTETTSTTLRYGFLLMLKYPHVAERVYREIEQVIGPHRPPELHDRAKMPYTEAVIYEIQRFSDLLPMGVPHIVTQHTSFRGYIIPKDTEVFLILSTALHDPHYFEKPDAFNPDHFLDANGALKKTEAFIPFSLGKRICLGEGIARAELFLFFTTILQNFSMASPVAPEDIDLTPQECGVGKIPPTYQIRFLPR

CYP450 2D6 = CYP450 2D6 (Homo sapiens, UniProt P10635); test: CYP450 panel, 2D6; conditions: 10 μM; substrate dextromethophan
Chain of CYP450 2D6 (P10635 whole entry): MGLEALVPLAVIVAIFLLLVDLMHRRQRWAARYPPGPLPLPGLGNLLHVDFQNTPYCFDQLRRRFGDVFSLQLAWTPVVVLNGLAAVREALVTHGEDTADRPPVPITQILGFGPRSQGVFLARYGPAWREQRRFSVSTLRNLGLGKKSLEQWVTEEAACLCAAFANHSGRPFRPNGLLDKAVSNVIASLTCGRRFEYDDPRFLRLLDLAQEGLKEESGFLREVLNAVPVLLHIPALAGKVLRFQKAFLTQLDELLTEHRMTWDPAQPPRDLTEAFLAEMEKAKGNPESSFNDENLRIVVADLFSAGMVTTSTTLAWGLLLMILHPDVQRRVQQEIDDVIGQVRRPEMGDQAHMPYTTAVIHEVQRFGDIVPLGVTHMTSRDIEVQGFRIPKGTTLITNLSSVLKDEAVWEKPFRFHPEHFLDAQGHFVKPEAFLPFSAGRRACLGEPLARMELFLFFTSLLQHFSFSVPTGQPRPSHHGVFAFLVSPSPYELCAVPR

[3] = Microsome stability, human; type: in vitro ADME; conditions: microsomes, 2 μM
CYP450 2C9 = CYP450 2C9 (Homo sapiens, UniProt P11712); test: CYP450 panel, 2C9; conditions: 10 μM; substrate Diclofenac
Chain of CYP450 2C9 (P11712 whole entry): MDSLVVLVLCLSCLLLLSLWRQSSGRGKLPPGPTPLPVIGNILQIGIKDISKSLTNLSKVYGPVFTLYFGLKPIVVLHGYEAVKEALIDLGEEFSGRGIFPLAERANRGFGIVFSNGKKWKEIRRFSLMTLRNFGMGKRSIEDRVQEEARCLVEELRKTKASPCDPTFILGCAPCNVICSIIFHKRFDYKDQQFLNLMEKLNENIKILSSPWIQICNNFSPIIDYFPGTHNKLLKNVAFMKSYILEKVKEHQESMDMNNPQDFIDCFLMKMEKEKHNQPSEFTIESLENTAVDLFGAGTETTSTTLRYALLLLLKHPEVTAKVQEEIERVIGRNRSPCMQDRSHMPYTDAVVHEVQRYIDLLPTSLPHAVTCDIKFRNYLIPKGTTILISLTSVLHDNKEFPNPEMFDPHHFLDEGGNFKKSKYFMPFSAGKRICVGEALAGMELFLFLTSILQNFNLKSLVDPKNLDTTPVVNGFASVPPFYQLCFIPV

[4] = Plasma stability, CD-1 mouse; type: in vitro ADME; conditions: 2 μM
CYP450 2C8 = target: T3, CYP450 2C8 (Homo sapiens, UniProt P10632); test: CYP450 panel, 2C8; conditions: 10 μM; substrate amodiaquine
T3 sequence (P10632 1-490): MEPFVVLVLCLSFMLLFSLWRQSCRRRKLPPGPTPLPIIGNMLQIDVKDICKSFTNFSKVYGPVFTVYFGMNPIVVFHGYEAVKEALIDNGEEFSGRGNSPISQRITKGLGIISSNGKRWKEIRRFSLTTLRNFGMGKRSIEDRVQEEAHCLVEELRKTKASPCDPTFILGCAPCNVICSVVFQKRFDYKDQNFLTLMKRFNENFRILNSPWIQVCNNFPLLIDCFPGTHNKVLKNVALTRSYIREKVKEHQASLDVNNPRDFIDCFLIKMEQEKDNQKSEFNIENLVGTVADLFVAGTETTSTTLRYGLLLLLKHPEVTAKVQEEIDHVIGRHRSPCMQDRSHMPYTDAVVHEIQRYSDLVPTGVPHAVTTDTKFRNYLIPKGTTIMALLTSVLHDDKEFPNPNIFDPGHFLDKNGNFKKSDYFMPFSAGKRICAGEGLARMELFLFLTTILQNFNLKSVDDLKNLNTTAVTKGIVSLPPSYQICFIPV

hERG Channel [5] = target: T4, hERG Channel (Homo sapiens, UniProt Q12809); test: in vitro
T4 sequence (Q12809 whole entry): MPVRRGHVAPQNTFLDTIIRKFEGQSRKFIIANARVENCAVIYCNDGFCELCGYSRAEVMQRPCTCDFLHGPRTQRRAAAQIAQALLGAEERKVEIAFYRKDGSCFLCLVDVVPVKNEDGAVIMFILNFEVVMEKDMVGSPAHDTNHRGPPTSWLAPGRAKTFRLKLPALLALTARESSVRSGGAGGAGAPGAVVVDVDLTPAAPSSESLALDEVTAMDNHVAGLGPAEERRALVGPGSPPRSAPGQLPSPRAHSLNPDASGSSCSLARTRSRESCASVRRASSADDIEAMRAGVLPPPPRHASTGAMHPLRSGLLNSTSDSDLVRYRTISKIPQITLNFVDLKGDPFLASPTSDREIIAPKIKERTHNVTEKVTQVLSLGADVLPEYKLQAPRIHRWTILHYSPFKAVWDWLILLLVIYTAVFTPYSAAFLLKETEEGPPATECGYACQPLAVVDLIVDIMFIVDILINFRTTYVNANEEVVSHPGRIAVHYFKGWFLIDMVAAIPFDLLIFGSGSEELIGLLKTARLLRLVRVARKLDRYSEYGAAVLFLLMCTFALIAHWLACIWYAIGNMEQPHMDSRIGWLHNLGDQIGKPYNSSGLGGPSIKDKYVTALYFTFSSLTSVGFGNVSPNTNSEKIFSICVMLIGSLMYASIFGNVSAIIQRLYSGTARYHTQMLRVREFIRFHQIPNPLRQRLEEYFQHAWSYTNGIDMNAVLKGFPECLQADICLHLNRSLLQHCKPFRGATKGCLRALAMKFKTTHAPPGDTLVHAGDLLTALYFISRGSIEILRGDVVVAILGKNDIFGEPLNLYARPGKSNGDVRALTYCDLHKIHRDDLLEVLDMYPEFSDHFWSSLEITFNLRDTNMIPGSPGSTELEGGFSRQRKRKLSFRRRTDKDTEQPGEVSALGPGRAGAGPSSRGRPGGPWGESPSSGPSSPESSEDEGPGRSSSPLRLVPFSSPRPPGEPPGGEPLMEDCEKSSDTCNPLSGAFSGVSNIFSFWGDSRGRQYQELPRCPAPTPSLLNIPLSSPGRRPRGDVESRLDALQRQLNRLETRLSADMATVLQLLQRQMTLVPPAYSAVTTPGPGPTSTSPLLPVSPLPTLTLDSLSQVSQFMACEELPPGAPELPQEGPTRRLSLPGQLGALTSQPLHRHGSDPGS

[6] = Microsome stability, beagle dog; type: in vitro ADME; conditions: microsomes, 2 μM
Plasma stability, human = type: in vitro ADME; conditions: 2 μM
[7] = Pharmacokinetics, single dose, 2-hour tissue levels in Colon26 tumor bearing mice; type: in vivo; conditions: single dose 100 mg/kg p.o., 2-hour post dose; for concentration at 2 h: female, athymic BALB/c nude or BALB/c, mouse, po
Procedure: Female mice (either athymic BALC/c nude, or BALB/c mice) were inoculated with a single subcutaneous injection of 0.2 ml of mouse Colon-26 cell suspension (1×10^5 cells per animal) in the inguinal region. Colon26 (C26) tumor bearing mice received a single dose (3 mice/treatment) of vehicle (10% DMSO/90% [20% SBE-β-CD in saline], pH 5) containing compounds at 100 mg/kg by gavage (p.o.) and 2-hour post dose humanely euthanized.
Blood was obtained through cardiac puncture into K+EDTA tubes, mixed by inversion and centrifuged to obtain the plasma. Tissues were excised, cleaned of surrounding tissues. All samples immediately snap frozen in liquid N2 prior to LC-MS/MS analysis (using Waters HSS T3 2.1×50 mm (1.8 um) LC column, and an API-6500 Electrospray MS unit).

hERG Channel [8] = target: T4, hERG Channel; test: cell-based
[9] = Absorption & efflux: Caco-2 permeability; conditions: human
A549 pERK = test: A549-pERK, 2 h (quantitative Western, Jess); type: cell-based; conditions: Homo sapiens, A549, 2 h, phospho:total ratio normalized to DMSO control; for activity at 0.01 µM: 10 nM
Summary of the method: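 Cells treated in duplicate for 2 h with compound, lysed and protein-normalised (1 mg/mL pERK, 1.5 mg/mL pMEK). Quantitative capillary Western; phospho/total protein ratio normalised to DMSO.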

[10] = tested on: A549 CRAF BP (MEK phosphorylation); test: A549-CRAF BP 100 nM, 2 h (pMEK); type: cell-based; conditions: Homo sapiens, A549, 2 h, phospho:total ratio normalized to DMSO control
Procedure: A549 or […] cells were treated in duplicate for two hours with compounds at varying concentrations. After two hours, the cells were lysed, snap frozen, and stored at −80° C. After storage, the lysate was quantified with the Bradford assay. Before the lysates were prepared to run on the Jess, the lysates were diluted to 1 mg/mL for pERK analysis and 1.5 mg/mL pMEK analysis using quantitative Western blotting. ERK and MEK phosphorylation levels were estimated by taking the ratio of phospho-protein to total protein and normalizing to the DMSO control. The results of this study are described in Tables 14-16.

[11] = tested on: A549 (KRAS G12S) pERK: total ERK; test: Phospho-ERK screen in A549 (KRAS G12S); type: cell-based; conditions: 10 μM for 2 hours; for activity at 10 µM: Homo sapiens, A549, 2 h, read-out: pERK: total ERK (% relative to vehicle)
Procedure: Materials and Methods: A549 or A375 cells were seeded in 6-well plates at an appropriate seeding density on day 0. On day 2 or 3, after checking the health and confluency of cells, the media was aspirated and replaced with 1 mL media containing a predetermined concentration of compound and incubated for 2 hours. After 2 hours, the media was aspirated, and the cells washed 2 times with cold PBS. Cells were lysed on ice, with 50 uL 1×CST lysis buffer+1 mM PMSF for 5 minutes. After 5 minutes, cells were removed using a scraper and transferred to cold 1.5 mL tubes, and centrifuged for 10 min, 4° C., 14,000×g. Supernatant was gently removed and snap frozen in liquid nitrogen. Protein concentration of the lysate was determined using Bradford Reagent (analyzed using SpectraMax M2E) and diluted to 1 mg/mL or pERK or 1.5 mg/mL for pMEK analysis. Cell lysates were then analyzed for phosphor-ERK/total-ERK levels on a Jess system (ProteinSimple; Cat #JS3346) using the following antibodies: tERK1/2 (CST 4696; 1:50) and pERK1/2 (CST 4377; 1:50). For pMEK/tMEK, the following antibodies were used: tMEK1/2 (CST 4694; 1:15) and pMEK1/2 (CST 9154; 1:400). All dilutions were in Milk-free antibody diluent.
The results of a phospho-ERK Screen in A549 (KRAS G12S) study is described in Table 7, 7A, 7B, and 8 below.

[12] = Caco-2, A-B Permeability Ranking
[13] = Caco-2, Mean Papp A-B (10^−6 cm/s)

Row | Structure (SMILES) | Beagle Dog (% Reamining @2 hour) [1] [%] | 1A2* (CYP450 1A2) | 3A4* (CYP450 3A4) | 3A4^ (CYP450 3A4) | 2C19* (CYP450 2C19) | CD-1 Mouse (% Reamining @1 hour) [2] [%] | 2B6* (CYP450 2B6) | 2D6* (CYP450 2D6) | Human (% Reamining @1 hour) [3] [%] | 2C9* (CYP450 2C9) | CD-1 Mouse (% Reamining @2 hour) [4] [%] | 2C8* (CYP450 2C8) | Beagle Dog (% Reamining @1 hour) [6] [%] | Human (% Reamining @2 hour) (Plasma stability, human) [%] | activity at 0.01 µM (A549 pERK) [%] | also measured
1 | CNS(=O)(=O)Nc1cccc(Cc2c(C)c3ccc(OC(=O)N(C)C)cc3oc2=O)c1F [Compound 7] | 99.8 | 0.3 | 29.9 | 59.7 | 11.6 | 29.6 | 28.5 | −7.4 | 61.1 | 33.8 | 56.5 | 14.4 | 57.0 | 88.1 | – | IC50 (hERG Channel [5]): 28.6 µM
2 | CNS(=O)(=O)Nc1cccc(Cc2c(CNCC#N)c3ccc(OC(=O)N(C)C)cc3oc2=O)c1F [Compound 13] | 95.9 | 6.5 | 25.7 | 34.9 | 6.2 | 16.8 | 15.8 | −2.6 | 57.7 | −4.6 | 87.1 | 6.2 | 69.6 | 87.3 | – | concentration at 2 h ([7]; liver, read-out: Liver): 36.6 ng/g; concentration at 2 h ([7]; tumor, read-out: Tumor): 26 ng/g; Muscle [7]: BQL; Plasma [7]: BQL; IC50 (hERG Channel [8]): > 30 µM; Papp B→A at 2 h, 10 μM [9]: 20 ×10⁻⁶ cm/s; efflux ratio at 2 h, 10 μM [9]: 5.57; Papp A→B at 2 h, 10 μM [9, 12]: > 1 ×10⁻⁶ cm/s; Papp A→B at 2 h, 10 μM [9, 13]: 3.59 ×10⁻⁶ cm/s
3 | C#CCNCc1c(Cc2cccc(NS(=O)(=O)NC)c2F)c(=O)oc2cc(OC(=O)N(C)C)ccc12 [Compound 14] | 91.2 | 6.3 | 26.7 | 39.3 | 4.0 | 13.2 | 15.6 | 6.6 | 38.1 | 8.2 | 95.0 | 8.4 | 51.6 | 96.0 | 64 | concentration at 2 h ([7]; liver, read-out: Liver): 17.8 ng/g; concentration at 2 h ([7]; muscle, read-out: Muscle): 19 ng/g; concentration at 2 h ([7]; plasma, read-out: Plasma): 18.5 ng/mL; concentration at 2 h ([7]; tumor, read-out: Tumor): 2.68 ng/g; activity at 0.1 µM [10]: 59.1%; IC50 (hERG Channel [8]): 19.4 µM; Papp B→A at 2 h, 10 μM [9]: 26.1 ×10⁻⁶ cm/s; efflux ratio at 2 h, 10 μM [9]: 2.8; Papp A→B at 2 h, 10 μM [9, 12]: > 1 ×10⁻⁶ cm/s; Papp A→B at 2 h, 10 μM [9, 13]: 9.34 ×10⁻⁶ cm/s
4 | CNS(=O)(=O)Nc1cccc(Cc2c(CNC(=O)OCCO)c3ccc(OC(=O)N(C)C)cc3oc2=O)c1F [Compound 106] | – | – | – | – | – | – | – | – | – | – | – | – | – | – | – | activity at 10 µM (A549 pERK): 27.9%; pERK: total ERK (% relative to vehicle) [11]: 27.88%
5 | CNS(=O)(=O)Nc1cccc(Cc2c(CN3CCNCC3)c3cc(F)c(OC(=O)N(C)C)cc3oc2=O)c1F [Compound 134] | – | – | – | – | – | – | – | – | – | – | – | – | – | – | 33.1 | activity at 10 µM [11]: 23.4%; activity at 0.1 µM [10]: 26.9%
6 | CNS(=O)(=O)Nc1cccc(Cc2c(CNC(=O)OCCO)c3ccc(OC(=O)N(C)C)cc3oc2=O)c1F [Compound 185] | – | – | – | – | – | – | – | – | – | – | – | – | – | – | – | pERK: total ERK (% relative to vehicle) [11]: 7.39%
7 | CNS(=O)(=O)Nc1cccc(Cc2c(CNCC(=O)N3CCNCC3)c3ccc(OC(=O)N(C)C)cc3oc2=O)c1F [Compound 191] | – | – | – | – | – | – | – | – | – | – | – | – | – | – | 131 | activity at 10 µM (A549 pERK): 8.6%; activity at 10 µM [11]: 7.34%
